One data set concerns the target T1, NFAST (Halorhodospira halophila, UniProt P16113, C69G/D97P/F96I/M100R/Q99S/T101G/T95M/Y94W/Y98T).
T1 construct: His tag (N); made in house; host or cells: Rosetta (DE3) pLysS E. coli
Description: Thermodynamic dissociation constants of NFAST:CFASTn couples in the presence of fluorogen (plate reader, one-site specific binding fit). To be noted: synthetic CFASTn peptide and purified NFAST. As for the experimental part:
In one embodiment, the thermodynamic dissociation constant KD is determined by spectrofluorometric titration as described in the Examples.
Expression vectors were transformed in Rosetta (DE3) pLysS E. coli (NEW ENGLAND BIOLABS®). Cells were grown at 37° C. in LB medium complemented with 50 μg/mL kanamycin and 34 μg/mL chloramphenicol to OD600 nm 0.6. Expression was induced for 4 hours by adding isopropyl β-D-1-thiogalactopyranoside (IPTG) to a final concentration of 1 mM. Cells were harvested by centrifugation (4,000×g for 20 min at 4° C.) and frozen. The cell pellet was resuspended in lysis buffer (phosphate buffer 50 mM, NaCl 150 mM, MgCl2 2.5 mM, protease inhibitor, DNase, pH 7.4) and sonicated (5 min at 20% of amplitude, 3 sec on, 1 sec off). The lysate was incubated for 2 hours at 4° C. to allow DNA digestion by DNase. Cellular fragments were removed by centrifugation (9200×g for 1 hour at 4° C.). The supernatant was incubated overnight at 4° C. under gentle agitation with Ni-NTA agarose beads in phosphate buffered saline (PBS) (sodium phosphate 50 mM, NaCl 150 mM, pH 7.4) complemented with 10 mM imidazole. Beads were washed with 20 volumes of PBS containing 20 mM imidazole, and with 5 volumes of PBS complemented with 40 mM imidazole. His-tagged proteins were eluted with 5 volumes of PBS complemented with 0.5 M imidazole. The buffer was exchanged to PBS (50 mM phosphate, 150 mM NaCl, pH 7.4) using PD-10 desalting columns.
Thermodynamic dissociation constants for NFAST:CFASTn (n=8 to 11) couples were determined using peptides synthesized for CFASTn (n=8 to 11) and recombinantly purified NFAST. The affinity for NFAST:CFAST11 in the presence of 10 μM HMBR was determined independently from a minimum of three different purifications of NFAST. NFAST:CFAST11 was then run in parallel as an internal control for the determination of the other NFAST-CFAST combinations, which were all performed on the same day with the same preparation of NFAST. Thermodynamic dissociation constants were determined with a Spark 10M plate reader (TECAN®) and fit in Prism 6 to a one-site specific binding model.

The next data set has as its system HEK 293T cells. Description: Relative in-cell brightness of split-FAST after rapamycin-induced FRB-FKBP complementation. The class given is cell-based, human. To be noted: FIG. 4; for relative in-cell brightness (fluorescence observed) by C-terminal fragment: FRB-NFAST + FKBP-CFASTn, any of HMBR, HBR-3,5DM, HBR-30M, HBR-3,5DOM. The text has this:
FIGS. 4A-4D are a set of histograms showing the relative in-cell brightness of various split-FAST with different fluorogenic HBR analogs as indicated (4A: HMBR, 4B: HBR-3,5DM, 4C: HBR-30M, and 4D: HBR-3,5DOM) in function of the C-terminal fragment CFASTn (n=11, 10 or 9) and the N-terminal fragment used. The iFAST label indicates when NFAST from iFAST (i.e., the first PYP fragment according to the invention consisting of the amino acid sequence NFAST with an isoleucine at position 107 instead of a valine as set forth in SEQ ID NO: 30) was used. If absent, NFAST from FAST was used (i.e., the first PYP fragment according to the invention consisting of the amino acid sequence as set forth in SEQ ID NO: 23). CFAST11, CFAST10 and CFAST9 correspond to the second PYP fragment according to the invention consisting of the amino acid sequence as set forth in SEQ ID NO: 34, SEQ ID NO: 42 and SEQ ID NO: 43, respectively. NFAST fragments were fused to FRB and CFAST fragments were fused to FKBP. Complementation was induced by addition of rapamycin. Split-FAST fluorescence was normalized by expression level using the fluorescence of co-expressed fluorescent proteins.
HEK 293T cells were seeded in ibidi μDish microscopy dishes and 24 hours prior to imaging were co-transfected with plasmids encoding CMV-FRB-NFAST (or NFAST(V107I))-P2A-mCherry (or EGFP)) and CMV-FKBP-CFASTn (n=11, 10 or 9). The cells were imaged before and after addition of 500 nM rapamycin.

A further data set concerns HEK293 cells. Briefly: Photobleaching / photostability of split-FAST:HMBR in cells by confocal microscopy. The class given is cell-based, human. The conditions noted are these: 10 μM HMBR, 488 nm excitation, rapamycin-treated cells, FAST as control, FIG. 5E. As for the experimental part: FIGS. 5A-5G illustrate the detection of rapamycin-induced FRB-FKBP dimerization with the complementation system of the invention. 5A and 5B show HEK293T cells co-expressing FKBP-NFAST and FRB-CFASTn (n=10 or 11) which were labeled with 5 μM HMBR (5A) or 10 μM HBR-3,5DOM (5B) and imaged before and after addition of 100 nM rapamycin. Scale bars 10 μm. […] Cells expressing FRB-NFAST and FKBP-CFASTn (n=10 or 11) were treated with rapamycin to form split-FAST11 and split-FAST10. Cells expressing FAST were used as control. HMBR concentration was 10 μM. Excitation at 488 nm at 6.3 kW/cm2. Six cells were analyzed per condition. […] Scale bars 20 μm. […] Scale bars 20 μm.
Photobleaching measurements for HMBR were carried out at 10 μM fluorogen at 488 nm excitation (4.6 kW/cm2, […] pixel dwell); FAST was used as a control. Samples were imaged continuously for 1000 images at a 1 frame per second frequency.

Setting [1] is: KD of NFAST-CFASTn 10 μM HMBR, in the presence of 10 μM HMBR.
Setting [2] is: KD of NFAST-CFASTn 10 μM HBR-3,5-DOM, in the presence of 10 μM HBR-3,5-DOM.

The source of these data is patent US12590127B2, “Split photoactive yellow protein complementation system and uses thereof” (PARIS SCIENCES ET LETTRES, priority 2019, dated 2026).

T1 sequence (P16113 1-114 C69G/Y94W/T95M/F96I/D97P/Y98T/Q99S/M100R/T101G): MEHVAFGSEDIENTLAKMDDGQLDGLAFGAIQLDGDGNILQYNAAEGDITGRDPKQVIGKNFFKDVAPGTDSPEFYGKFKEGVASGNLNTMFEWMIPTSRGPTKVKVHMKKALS

By Kd is commonly meant the concentration at which binding is half-saturated. In the case of Ac-GDSYWVFV-NH2 [CFAST8], the Kd at NFAST (setting [1]) came out at 21 ± 4 µM.
In the case of Ac-GDSYWVFVK-NH2 [CFAST9], the results for the Kd at NFAST (setting [2]) and on NFAST (setting [1]) were 25 ± 1 µM and 5.7 ± 0.06 µM, respectively. Moreover, the “relative in-cell brightness (fluorescence observed) by C-terminal fragment” value (“relative in-cell brightness” for short) in the data set with HEK 293T cells is “lowest”.
Regarding Ac-GDSYWVFVKR-NH2 [CFAST10], the Kd on NFAST (setting [2]) was 6.2 ± 0.5 µM; at NFAST (setting [1]), 0.95 ± 0.08 µM. Besides, the “relative in-cell brightness” value with HEK 293T cells was “lower”. Besides, the “photostability of split-FAST:fluorogen assembly in cells” value in the data set with HEK293 cells is recorded as “as photostable as the regular FAST:fluorogen complex”.
Turning to Ac-GDSYWVFVKRV-NH2 [CFAST11], the Kd on NFAST (setting [2]) came to 1.4 ± 0.2 µM; at NFAST (setting [1]) it was 0.21 ± 0.05 µM. Moreover, in the data set with HEK 293T cells, the “relative in-cell brightness” value was “highest”. Moreover, the “photostability of split-FAST:fluorogen assembly in cells” value in the data set with HEK293 cells is “as photostable as the regular FAST:fluorogen complex”.

B1: iFAST: FAST variant with isoleucine at position 107 (SEQ ID NO: 16); its Nter fragment is SEQ ID NO: 30 (protein)
chain: MEHVAFGSEDIENTLAKMDDGQLDGLAFGAIQLDGDGNILQYNAAEGDITGRDPKQVIGKNFFKDVAPGTDSPEFYGKFKEGVASGNLNTMFEWMIPTSRGPTKVKIHMKKALSGDSYWVFVKRV
modifications: functional PYP
Consider B1, for which the “fluorescence of the Nter fragment of iFAST + CFAST compared with NFAST + CFAST” value in the data set on HEK 293T cells (HEK 293T cells) was “similar”.
